Values after ≈ are worked out from the molar mass of the structure shown. Peptide text beside a SMILES is read from it.

This is an account of results in ChEMBL document CHEMBL4613322, “HOPPI-NMR: Hot-Peptide-Based Screening Assay for Inhibitors of Protein-Protein Interactions by NMR” (ACS Med Chem Lett, 2020).

One data set addresses Bcl-2-like protein 1 (Mus musculus, UniProt Q64373). Nature of the data set: Binding affinity to BCL-xl in murine B-cell lymphoma assessed as inhibition of BCL-xl/Bax protein-protein interaction.
Data set [1] is described as follows: Solubility of compound in PBS. The format is physicochemical.
Data set [2] concerns the target T1, AP-1 complex subunit beta-1 (Homo sapiens, UniProt Q10567).
T1 sequence (Q10567 whole entry): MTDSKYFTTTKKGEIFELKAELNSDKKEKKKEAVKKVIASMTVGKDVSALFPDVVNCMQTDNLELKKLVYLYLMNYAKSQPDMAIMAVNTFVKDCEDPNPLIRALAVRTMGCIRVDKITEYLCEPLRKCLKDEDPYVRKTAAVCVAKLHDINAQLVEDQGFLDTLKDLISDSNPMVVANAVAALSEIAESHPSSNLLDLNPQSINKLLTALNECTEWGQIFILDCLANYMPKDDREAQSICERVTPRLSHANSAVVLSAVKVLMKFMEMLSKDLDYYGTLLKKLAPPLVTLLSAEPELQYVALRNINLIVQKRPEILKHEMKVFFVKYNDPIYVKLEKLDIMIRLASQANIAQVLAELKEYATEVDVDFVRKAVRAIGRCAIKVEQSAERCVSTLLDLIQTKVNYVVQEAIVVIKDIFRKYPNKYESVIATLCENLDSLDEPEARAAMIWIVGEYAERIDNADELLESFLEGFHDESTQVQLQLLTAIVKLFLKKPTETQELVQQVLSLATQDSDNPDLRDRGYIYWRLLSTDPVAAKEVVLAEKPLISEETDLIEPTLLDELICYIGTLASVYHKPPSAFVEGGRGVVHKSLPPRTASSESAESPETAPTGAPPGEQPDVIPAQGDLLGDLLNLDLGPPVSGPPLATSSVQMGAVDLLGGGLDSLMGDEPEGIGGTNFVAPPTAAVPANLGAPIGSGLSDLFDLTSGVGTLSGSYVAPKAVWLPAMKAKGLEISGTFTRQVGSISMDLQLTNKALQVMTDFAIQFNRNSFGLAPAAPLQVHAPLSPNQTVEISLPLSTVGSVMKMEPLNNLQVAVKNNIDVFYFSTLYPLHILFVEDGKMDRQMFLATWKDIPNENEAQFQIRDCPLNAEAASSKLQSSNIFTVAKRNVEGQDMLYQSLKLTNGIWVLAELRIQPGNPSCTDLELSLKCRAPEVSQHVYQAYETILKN
Kind of data set: Binding affinity to beta-adaptin 1 (unknown origin) by fluorescence polarization assay.

Bcl-2-like protein 1, sequence (Q64373 whole entry): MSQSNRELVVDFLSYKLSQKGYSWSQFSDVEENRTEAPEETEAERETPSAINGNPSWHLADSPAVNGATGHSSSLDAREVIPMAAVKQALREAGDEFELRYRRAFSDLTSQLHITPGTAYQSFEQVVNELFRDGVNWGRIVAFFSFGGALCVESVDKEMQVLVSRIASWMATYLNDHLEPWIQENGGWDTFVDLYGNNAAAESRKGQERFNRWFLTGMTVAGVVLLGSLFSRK

Regarding `CC[C@H](C)[C@H](NC(=O)[C@H](CCCN=C(N)N)NC(=O)[C@H](CCCCN)NC(=O)[C@H](CC(C)C)NC(=O)[C@H](CS)NC(=O)[C@H](CCC(=O)O)NC(=O)[C@H](CO)NC(=O)[C@H](CC(C)C)NC(=O)[C@H](CCCCN)NC(=O)[C@@H](N)CCCCN)C(=O)NCC(=O)N[C@@H](CC(=O)O)C(=O)N[C@@H](CCC(=O)O)C(=O)N[C@@H](CC(C)C)C(=O)N[C@@H](CC(=O)O)C(=O)N[C@@H](CO)C(=O)O` (H-KKLSECLKRIGDELDS-OH), the Kd on Bcl-2-like protein 1 stood at 13 µM. In the case of `COc1ccc(C2=N[C@@H](c3ccc(Cl)cc3)[C@@H](c3ccc(Cl)cc3)N2C(=O)N2CCNC(=O)C2)c(OC(C)C)c1` [NUTLIN-3], the concentration in solution in data set [1] (solubility) was 100 µM (≈ 58.2 µg/mL). Consider `CC[C@H](C)[C@H](NC(=O)[C@H](CC(=O)O)NC(=O)[C@H](CC(=O)O)NC(=O)[C@@H](N)CC(=O)O)C(=O)N[C@H](C(=O)N[C@@H](Cc1ccccc1)C(=O)N[C@@H](CCC(=O)O)C(=O)N[C@@H](CC(=O)O)C(=O)N[C@@H](Cc1ccccc1)C(=O)N[C@@H](C)C(=O)N[C@@H](CCCNC(=N)N)C(=O)N[C@@H](CCC(N)=O)C(=O)N[C@@H](CCCNC(=N)N)C(=O)N[C@@H](CC(C)C)C(=O)N[C@@H](CCCCN)C(=O)NCC(=O)N[C@@H](CCSC)C(=O)N[C@@H](CCCCN)C(=O)N[C@@H](CC(=O)O)C(=O)N[C@@H](CC(=O)O)C(=O)O)C(C)C` (H-DDDIVFEDFARQRLKGMKDD-OH), for which the affinity in data set [2], expressed as Kd, was 2.1 µM.
